Experimental data reported in patent US20250213555A1, “SUBSTITUTED TETRAHYDROFURAN ANALOGS AS MODULATORS OF SODIUM CHANNELS” (VERTEX PHARMACEUTICALS INCORPORATED, priority 2021, published 2025).
pIC50: −log10 of the molar value.

biological target: human Nav 1.8 (Homo sapiens, UniProt Q9Y5Y9); assay: E-VIPR assay detecting and measuring Nav inhibition properties; format: cell-based; details: HEK cells expressing a truncated form of human Nav 1.8; assay performed in the presence of human serum (compound numbers followed by "*"); read-out: measured IC50 value in the E-VIPR Assay
Method in brief: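 Nav inhibition was read by E-VIPR: cells were electrically stimulated while coumarin/oxonol FRET emissions were recorded. Cells were HEK expressing a truncated human Nav 1.8 and co-transduced with KIR2.1, and were assayed in 25% final human serum.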

human Nav 1.8, sequence (Q9Y5Y9 126-399 limits assumed): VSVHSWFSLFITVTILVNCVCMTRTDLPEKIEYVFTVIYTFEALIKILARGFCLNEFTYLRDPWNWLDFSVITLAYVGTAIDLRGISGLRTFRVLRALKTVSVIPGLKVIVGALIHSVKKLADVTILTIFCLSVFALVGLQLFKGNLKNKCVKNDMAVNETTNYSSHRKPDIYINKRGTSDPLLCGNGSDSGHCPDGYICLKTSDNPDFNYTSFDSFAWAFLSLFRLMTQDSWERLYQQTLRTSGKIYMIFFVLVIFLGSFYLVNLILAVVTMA
human Nav 1.8, sequence (Q9Y5Y9 660-890 limits assumed): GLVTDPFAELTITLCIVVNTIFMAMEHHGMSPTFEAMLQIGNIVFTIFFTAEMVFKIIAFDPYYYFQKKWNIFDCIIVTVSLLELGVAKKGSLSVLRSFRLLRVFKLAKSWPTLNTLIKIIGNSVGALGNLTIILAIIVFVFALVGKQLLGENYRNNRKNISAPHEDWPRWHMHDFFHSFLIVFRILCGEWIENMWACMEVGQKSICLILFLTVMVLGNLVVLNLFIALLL
human Nav 1.8, sequence (Q9Y5Y9 1148-1722 limits assumed): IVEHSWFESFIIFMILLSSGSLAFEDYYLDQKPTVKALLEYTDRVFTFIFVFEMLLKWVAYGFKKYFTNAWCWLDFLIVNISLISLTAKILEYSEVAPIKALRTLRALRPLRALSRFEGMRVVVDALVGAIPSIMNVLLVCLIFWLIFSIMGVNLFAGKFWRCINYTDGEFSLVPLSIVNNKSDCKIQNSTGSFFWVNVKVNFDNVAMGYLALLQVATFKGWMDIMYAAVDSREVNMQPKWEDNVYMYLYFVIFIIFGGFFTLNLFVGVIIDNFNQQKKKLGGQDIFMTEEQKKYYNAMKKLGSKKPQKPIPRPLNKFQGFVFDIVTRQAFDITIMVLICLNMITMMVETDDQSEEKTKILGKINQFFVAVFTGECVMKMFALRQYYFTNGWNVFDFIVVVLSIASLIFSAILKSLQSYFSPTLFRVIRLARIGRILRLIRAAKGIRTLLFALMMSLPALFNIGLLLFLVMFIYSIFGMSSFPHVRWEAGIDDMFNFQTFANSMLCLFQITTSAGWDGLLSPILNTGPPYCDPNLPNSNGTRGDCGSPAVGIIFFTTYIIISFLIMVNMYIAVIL

Row | pIC50 | Structure (SMILES)
1 | 6.00 to 7.00 | Cc1c(F)ccc([C@@H]2C[C@](C)(C(F)(F)F)O[C@H]2C(=O)Nc2ccnc(C(N)=O)c2)c1OCCO (single isomer, unassigned) [Compound 37]

same assay, conditions: HEK cells expressing a truncated form of human Nav 1.8; compound numbers without "*" (not marked as run in the presence of human serum); read-out: measured IC50 value in the E-VIPR Assay

Row | Structure (SMILES) | pIC50
2 | C[C@@H](COc1c([C@H]2[C@H](C(=O)Nc3ccnc(C(N)=O)c3)O[C@@](C)(C(F)(F)F)[C@H]2C)ccc(F)c1F)N1CC2(COC2)C1 [Compound 40, 4-((2R,3S,4S,5R)-3-(2-((S)-2-(2-oxa-6-azaspiro[3.3]heptan-6-yl)propoxy)-3,4-difluorophenyl)-4,5-dimethyl-5-(trifluoromethyl)tetrahydrofuran-2-carboxamido)picolinamide] | > 8.00
3 | COCc1c([C@H]2[C@H](C(=O)Nc3ccnc(C(N)=O)c3)O[C@@](C)(C(F)(F)F)[C@H]2C)ccc(F)c1F (single isomer, unassigned) [Compound 147] | > 8.00
4 | CN[C@H]1CN(C(=O)c2cc(NC(=O)[C@@H]3O[C@@](C)(C(F)(F)F)[C@@H](C)[C@H]3c3ccc(F)c(F)c3OC)ccn2)C[C@H]1F [Compound 292, (2R,3S,4S,5R)-3-(3,4-difluoro-2-methoxyphenyl)-N-(2-((3R,4S)-3-fluoro-4-(methylamino)pyrrolidine-1-carbonyl)pyridin-4-yl)-4,5-dimethyl-5-(trifluoromethyl)tetrahydrofuran-2-carboxamide] | > 8.00
5 | C[C@H]1[C@@H](c2ccc(F)c(F)c2OCC(=NO)C2(F)CC2)[C@H](C(=O)Nc2ccnc(C(N)=O)c2)O[C@@]1(C)C(F)(F)F [Compound 190, 4-((2R,3S,4S,5R)-3-(3,4-difluoro-2-(2-(1-fluorocyclopropyl)-2-(hydroxyimino)ethoxy)phenyl)-4,5-dimethyl-5-(trifluoromethyl)tetrahydrofuran-2-carboxamido)picolinamide] | > 8.00
6 | C[C@H]1[C@@H](c2ccc(F)c(F)c2OCCN2C[C@H]3C[C@@H]2CO3)[C@H](C(=O)Nc2ccnc(C(N)=O)c2)O[C@@]1(C)C(F)(F)F (relative stereo) [Compound 47, rel-4-((2R*,3S*,4S*,5R*)-3-(2-(2-((1R,4R)-2-oxa-5-azabicyclo[2.2.1]heptan-5-yl)ethoxy)-3,4-difluorophenyl)-4,5-dimethyl-5-(trifluoromethyl)tetrahydrofuran-2-carboxamido)picolinamide] | 7.00 to 8.00
7 | COc1c([C@@H]2[C@@H](C(=O)Nc3ccnc(C(N)=O)c3)O[C@](C)(C(F)(F)F)[C@@H]2C)ccc(OCC2CC2)c1F (single isomer, unassigned) [Compound 141] | 6.00 to 7.00
8 | COc1c([C@H]2[C@H](C(=O)Nc3ccnc(C(N)=O)c3)O[C@@](C)(C(F)(F)F)[C@H]2C)ccc(OC2CC(F)(F)C2)c1F [Compound 207, 4-((2R,3S,4S,5R)-3-(4-(3,3-difluorocyclobutoxy)-3-fluoro-2-methoxyphenyl)-4,5-dimethyl-5-(trifluoromethyl)tetrahydrofuran-2-carboxamido) picolinamide] | > 8.00
9 | COc1c([C@H]2[C@H](C(=O)Nc3ccnc(C(=O)N4C[C@@H](OC)[C@@H](N(C)C)C4)c3)O[C@@](C)(C(F)(F)F)[C@H]2C)ccc(F)c1F [Compound 298, (2R,3S,4S,5R)-3-(3,4-difluoro-2-methoxyphenyl)-N-(2-((3S,4R)-3-(dimethylamino)-4-methoxypyrrolidine-1-carbonyl)pyridin-4-yl)-4,5-dimethyl-5-(trifluoromethyl)tetrahydrofuran-2-carboxamide] | > 8.00
10 | C[C@H]1[C@@H](c2ccc(F)c(F)c2OCc2cn(C)cn2)[C@H](C(=O)Nc2ccnc(C(N)=O)c2)O[C@@]1(C)C(F)(F)F [Compound 88, 4-((2R,3S,4S,5R)-3-(3,4-difluoro-2-((1-methyl-1H-imidazol-4-yl)methoxy)phenyl)-4,5-dimethyl-5-(trifluoromethyl)tetrahydrofuran-2-carboxamido)picolinamide] | > 8.00
11 | CC1C(c2ccc(F)c(F)c2OCC2CCC2O)C(C(=O)Nc2ccnc(C(N)=O)c2)OC1(C)C(F)(F)F [Compound 98, rel-4-((2R*,3S*,4S*,5R*)-3-(3,4-difluoro-2-(((15,2S)-2-hydroxycyclobutyl)methoxy)phenyl)-4,5-dimethyl-5-(trifluoromethyl)tetrahydrofuran-2-carboxamido)picolinamide] | 7.00 to 8.00
12 | C[C@H]1[C@@H](c2ccc(F)c(F)c2OC2CC3(CC(O)C3)C2)[C@H](C(=O)Nc2ccnc(C(N)=O)c2)O[C@@]1(C)C(F)(F)F (stereo partly drawn) [Compound 204, 4-((2R,3S,4S,5R)-3-(3,4-difluoro-2-((6-hydroxyspiro[3.3]heptan-2-yl)oxy)phenyl)-4,5-dimethyl-5-(trifluoromethyl)tetrahydrofuran-2-carboxamido)picolinamide] | 6.00 to 7.00
13 | CNC(=O)COc1c([C@H]2[C@H](C(=O)Nc3ccnc(C(N)=O)c3)O[C@@](C)(C(F)(F)F)[C@H]2C)ccc(F)c1F [Compound 96, 4-((2R,3S,4S,5R)-3-(3,4-difluoro-2-(2-(methylamino)-2-oxoethoxy)phenyl)-4,5-dimethyl-5-(trifluoromethyl)tetrahydrofuran-2-carboxamido)picolinamide] | 7.00 to 8.00
14 | C[C@@H]1COCCN1CCOc1c([C@H]2[C@H](C(=O)Nc3ccnc(C(N)=O)c3)O[C@@](C)(C(F)(F)F)[C@H]2C)ccc(F)c1F [Compound 56, 4-((2R,3S,4S,5R)-3-(3,4-difluoro-2-(2-((R)-3-methylmorpholino)ethoxy)phenyl)-4,5-dimethyl-5-(trifluoromethyl)tetrahydrofuran-2-carboxamido)picolinamide] | > 8.00
15 | C[C@H]1[C@@H](c2ccc(F)c(F)c2OCCN2CC3(CCOC3)C2)[C@H](C(=O)Nc2ccnc(C(N)=O)c2)O[C@@]1(C)C(F)(F)F [Compound 126, 4-((2R,3S,4S,5R)-3-(2-(2-(6-oxa-2-azaspiro[3.4]octan-2-yl)ethoxy)-3,4-difluorophenyl)-4,5-dimethyl-5-(trifluoromethyl)tetrahydrofuran-2-carboxamido)picolinamide] | 7.00 to 8.00
16 | COc1c([C@H]2[C@H](C(=O)Nc3ccnc(C(=O)N4CCN(C)C(C)(C)C4)c3)O[C@@](C)(C(F)(F)F)[C@H]2C)ccc(F)c1F [Compound 280, (2R,3S,4S,5R)-3-(3,4-difluoro-2-methoxyphenyl)-4,5-dimethyl-5-(trifluoromethyl)-N-(2-(3,3,4-trimethylpiperazine-1-carbonyl)pyridin-4-yl)tetrahydrofuran-2-carboxamide] | > 8.00

Further lines, results first:

Row | pIC50 | Structure (SMILES)
17 | > 8.00 | CNC(=O)c1cc(NC(=O)[C@@H]2O[C@@](C)(C(F)(F)F)[C@@H](C)[C@H]2c2ccc(F)c(F)c2OC[C@H](C)N2CC3(COC3)C2)ccn1 [Compound 43, 4-((2R,3S,4S,5R)-3-(2-((S)-2-(2-oxa-6-azaspiro[3.3]heptan-6-yl)propoxy)-3,4-difluorophenyl)-4,5-dimethyl-5-(trifluoromethyl)tetrahydrofuran-2-carboxamido)-N-methylpicolinamide]
18 | 7.00 to 8.00 | CNCCOc1c([C@H]2[C@H](C(=O)Nc3ccnc(C(N)=O)c3)O[C@@](C)(C(F)(F)F)[C@H]2C)ccc(F)c1F [Compound 114, 4-((2R,3S,4S,5R)-3-(3,4-difluoro-2-(2-(methylamino)ethoxy)phenyl)-4,5-dimethyl-5-(trifluoromethyl)tetrahydrofuran-2-carboxamido)picolinamide]
19 | > 8.00 | COc1c([C@H]2[C@H](C(=O)Nc3ccnc(C(=O)N4C[C@H](OC)[C@H](N(C)C)C4)c3)O[C@@](C)(C(F)(F)F)[C@H]2C)ccc(F)c1F [Compound 302, (2R,3S,4S,5R)-3-(3,4-difluoro-2-methoxyphenyl)-N-(2-((3R,4S)-3-(dimethylamino)-4-methoxypyrrolidine-1-carbonyl)pyridin-4-yl)-4,5-dimethyl-5-(trifluoromethyl)tetrahydrofuran-2-carboxamide]
20 | > 8.00 | COc1c([C@H]2[C@H](C(=O)Nc3ccnc(C(=O)N(C)[C@@H]4CCNC4)c3)O[C@@](C)(C(F)(F)F)[C@H]2C)ccc(F)c1F [Compound 229, 4-((2R,3S,4S,5R)-3-(3,4-difluoro-2-methoxyphenyl)-4,5-dimethyl-5-(trifluoromethyl)tetrahydrofuran-2-carboxamido)-N-methyl-N-((R)-pyrrolidin-3-yl)picolinamide]
21 | 6.00 to 7.00 | COc1c([C@H]2[C@H](C(=O)Nc3ccnc(C(=O)N[C@H]4CNCC[C@H]4OC)c3)O[C@@](C)(C(F)(F)F)[C@H]2C)ccc(F)c1F [Compound 246, 4-((2R,3S,4S,5R)-3-(3,4-difluoro-2-methoxyphenyl)-4,5-dimethyl-5-(trifluoromethyl)tetrahydrofuran-2-carboxamido)-N-((3S,4R)-4-methoxypiperidin-3-yl)picolinamide]
22 | > 8.00 | C[C@H]1[C@@H](c2ccc(F)c(F)c2OCC(CO)C(F)(F)F)[C@H](C(=O)Nc2ccnc(C(N)=O)c2)O[C@@]1(C)C(F)(F)F (stereo partly drawn) [Compound 169, 4-((2R,3S,4S,5R)-3-(3,4-difluoro-2-(3,3,3-trifluoro-2-(hydroxymethyl)propoxy)phenyl)-4,5-dimethyl-5-(trifluoromethyl)tetrahydrofuran-2-carboxamido)picolinamide]
23 | 7.00 to 8.00 | C[C@H]1[C@@H](c2ccc(F)c(F)c2OCC2(CO)CCC2)[C@H](C(=O)Nc2ccnc(C(N)=O)c2)O[C@@]1(C)C(F)(F)F [Compound 97, 4-((2R,3S,4S,5R)-3-(3,4-difluoro-2-((1-(hydroxymethyl)cyclobutyl)methoxy)phenyl)-4,5-dimethyl-5-(trifluoromethyl)tetrahydrofuran-2-carboxamido)picolinamide]
24 | > 8.00 | COC[C@H]1CN(C(=O)c2cc(NC(=O)[C@@H]3O[C@@](C)(C(F)(F)F)[C@@H](C)[C@H]3c3ccc(F)c(F)c3OC)ccn2)CCN1C [Compound 287, (2R,3S,4S,5R)-3-(3,4-difluoro-2-methoxyphenyl)-N-(2-((R)-3-(methoxymethyl)-4-methylpiperazine-1-carbonyl)pyridin-4-yl)-4,5-dimethyl-5-(trifluoromethyl)tetrahydrofuran-2-carboxamide]
